{"source": "paper PMC6301270", "about": "(MedChemComm, 2018)", "tested_on": "T.b. brucei (strain 427) bloodstream form parasites", "assay": "T.b. brucei single concentration screen (10 μM)", "conditions": "Trypanosoma brucei, read-out: T.b.brucei % viability (10 µM)", "data": [{"smiles": "CNCCC(Oc1ccc(C(F)(F)F)cc1)c1ccccc1", "note": "(centres unmarked) [Compound 33, CNCCC(Oc1ccc(cc1)C(F)(F)F)c2ccccc2]", "values": [{"measurement": "viability at 10 µM", "result": 2.4, "unit": "%"}]}, {"smiles": "CN1CCCC1CCO[C@](C)(c1ccccc1)c1ccc(Cl)cc1", "note": "(some centres unmarked) [Compound 62, ClC1=CC=C([C@@](C)(C2=CC=CC=C2)OCCC3N(C)CCC3)C=C1]", "values": [{"measurement": "viability at 10 µM", "result": 2, "unit": "%"}]}, {"smiles": "COc1cccc(-n2nnnc2S(C)(=O)=O)c1", "note": "[Compound 63, COc1cccc(c1)n2nnnc2S(=O)(=O)C]", "values": [{"measurement": "viability at 10 µM", "result": 103, "unit": "%"}]}, {"smiles": "CC(C)(C)c1cnc(NC(=O)c2ccccc2O)s1", "note": "[Compound 64, CC(C)(C)c1cnc(NC(=O)c2ccccc2O)s1]", "values": [{"measurement": "viability at 10 µM", "result": 77, "unit": "%"}]}, {"smiles": "Nc1nc2cc(-c3cncc(Oc4ccc(F)cc4)c3)ccc2[nH]1", "note": "[Compound 65, Nc1nc2ccc(cc2[nH]1)c3cncc(Oc4ccc(F)cc4)c3]", "values": [{"measurement": "viability at 10 µM", "result": 14, "unit": "%"}]}, {"smiles": "O=C(Nc1ccc(N2CCNCC2)cc1)c1ccn2ncc(-c3cccc(Cl)c3)c2n1", "note": "[Compound 67, Clc1cccc(c1)c2cnn3ccc(nc23)C(=O)Nc4ccc(cc4)N5CCNCC5]", "values": [{"measurement": "viability at 10 µM", "result": 1, "unit": "%"}]}, {"smiles": "O=C(NCCc1ccccc1)c1cc(-c2cccnc2)cnc1NCC1CC1", "note": "[Compound 68, O=C(NCCc1ccccc1)c2cc(cnc2NCC3CC3)c4cccnc4]", "values": [{"measurement": "viability at 10 µM", "result": 79, "unit": "%"}]}, {"smiles": "Cc1[nH]c2ccccc2c1C(c1cccs1)N1CCN(C)CC1", "note": "(centres unmarked) [Compound 69, CN1CCN(CC1)C(c2cccs2)c3c(C)[nH]c4ccccc34]", "values": [{"measurement": "viability at 10 µM", "result": 29, "unit": "%"}]}, {"smiles": "O=S(=O)(c1ccc(Cl)cc1)N1CCN(C(=S)NCc2ccco2)CC1", "note": "[MMV000858, Clc1ccc(cc1)S(=O)(=O)N2CCN(CC2)C(=S)NCc3occc3]", "values": [{"measurement": "viability at 10 µM", "result": 97, "unit": "%"}]}, {"smiles": "COc1cccc2c(C)nc(N=C(N)N)nc12", "note": "[MMV000907, COc1cccc2c(C)nc(N=C(N)N)nc12]", "values": [{"measurement": "viability at 10 µM", "result": 79, "unit": "%"}]}, {"smiles": "CCCS(=O)(=O)N1CCC(CO)(Cc2ccccc2C(F)(F)F)CC1", "note": "[MMV001059, CCCS(=O)(=O)N1CCC(CO)(Cc2ccccc2C(F)(F)F)CC1]", "values": [{"measurement": "viability at 10 µM", "result": 87, "unit": "%"}]}, {"smiles": "COC(=O)C1=C(C)NC(C)=C(C(=O)OC(C)C)C1c1cccc2nonc12", "note": "(centres unmarked) [MMV001493, COC(=O)C1=C(C)NC(=C(C1c2cccc3nonc23)C(=O)OC(C)C)C]", "values": [{"measurement": "viability at 10 µM", "result": 97, "unit": "%"}]}, {"smiles": "CN1CCCN(C(c2ccccc2)c2ccc(Cl)cc2)CC1", "note": "(centres unmarked) [MMV004168, CN1CCCN(CC1)C(c2ccccc2)c3ccc(Cl)cc3]", "values": [{"measurement": "viability at 10 µM", "result": 55, "unit": "%"}]}, {"smiles": "O=C1Nc2ccc(Br)cc2C12NCCc1c2[nH]c2ccccc12", "note": "(centres unmarked) [MMV006239, Brc1ccc2NC(=O)C3(NCCc4c3[nH]c5ccccc45)c2c1]", "values": [{"measurement": "viability at 10 µM", "result": 106, "unit": "%"}]}, {"smiles": "Cc1ccc2[nH]c3c(NCCN(C)C)ncnc3c2c1", "note": "[MMV006372, CN(C)CCNc1ncnc2c3cc(C)ccc3[nH]c12]", "values": [{"measurement": "viability at 10 µM", "result": 86, "unit": "%"}]}, {"smiles": "COc1cc2ncnc(NC3CCN(Cc4ccccc4)CC3)c2cc1OC", "note": "[MMV006741, COc1cc2ncnc(NC3CCN(Cc4ccccc4)CC3)c2cc1OC]", "values": [{"measurement": "viability at 10 µM", "result": 103, "unit": "%"}]}, {"smiles": "Cc1cc(Cl)c(S(=O)(=O)N2CCCC2)cc1OCC(=O)NC1CCCCC1", "note": "[MMV006833, Cc1cc(Cl)c(cc1OCC(=O)NC2CCCCC2)S(=O)(=O)N3CCCC3]", "values": [{"measurement": "viability at 10 µM", "result": 98, "unit": "%"}]}, {"smiles": "Cc1cc(NC(=O)c2ccc(S(=O)(=O)N(Cc3ccccc3)C(C)C)cc2)no1", "note": "[MMV007133, CC(C)N(Cc1ccccc1)S(=O)(=O)c2ccc(cc2)C(=O)Nc3cc(C)on3]", "values": [{"measurement": "viability at 10 µM", "result": 98, "unit": "%"}]}, {"smiles": "COc1cc(OC)cc(C(=O)NCC2Cc3cc(Cl)cc(-c4ccncc4)c3O2)c1", "note": "(centres unmarked) [MMV007471, COc1cc(OC)cc(c1)C(=O)NCC2Cc3cc(Cl)cc(c3O2)c4ccncc4]", "values": [{"measurement": "viability at 10 µM", "result": 74, "unit": "%"}]}, {"smiles": "Cc1cc(C)n(-c2ccc(NC(=O)C3CCN(Cc4cnc(C)s4)CC3)cc2)n1", "note": "[MMV007625, Cc1cc(C)n(n1)c2ccc(NC(=O)C3CCN(Cc4cnc(C)s4)CC3)cc2]", "values": [{"measurement": "viability at 10 µM", "result": 65, "unit": "%"}]}, {"smiles": "CCOc1ccc(-c2nc(NC(=O)CS(=O)(=O)c3ccccc3)sc2C)cc1", "note": "[MMV007638, CCOc1ccc(cc1)c2nc(NC(=O)CS(=O)(=O)c3ccccc3)sc2C]", "values": [{"measurement": "viability at 10 µM", "result": 73, "unit": "%"}]}, {"smiles": "O=C(NC1CC1)c1ccc(CSCc2ccccc2Cl)o1", "note": "[MMV007803, Clc1ccccc1CSCc2oc(cc2)C(=O)NC3CC3]", "values": [{"measurement": "viability at 10 µM", "result": 101, "unit": "%"}]}, {"smiles": "Nc1ccc(C(=O)Nc2ccc(-c3nc4ccccc4o3)cc2)cc1", "note": "[MMV007920, Nc1ccc(cc1)C(=O)Nc2ccc(cc2)c3oc4ccccc4n3]", "values": [{"measurement": "viability at 10 µM", "result": 83, "unit": "%"}]}, {"smiles": "COc1ccc(CN2CCOc3ccc(C(C)(O)CN(C)C)cc3C2)cc1C", "note": "(centres unmarked) [MMV008439, COc1ccc(CN2CCOc3ccc(cc3C2)C(C)(O)CN(C)C)cc1C]", "values": [{"measurement": "viability at 10 µM", "result": 94, "unit": "%"}]}, {"smiles": "Cc1cc(C(=O)Nc2cnn(Cc3ccc(Cl)cc3Cl)c2)no1", "note": "[MMV009054, Cc1onc(c1)C(=O)Nc2cnn(Cc3ccc(Cl)cc3Cl)c2]", "values": [{"measurement": "viability at 10 µM", "result": 89, "unit": "%"}]}, {"smiles": "O=C(C1CCN(c2nnnn2-c2ccccc2)CC1)N1CCc2ccccc2C1", "note": "[MMV009135, O=C(C1CCN(CC1)c2nnnn2c3ccccc3)N4CCc5ccccc5C4]", "values": [{"measurement": "viability at 10 µM", "result": 94, "unit": "%"}]}, {"smiles": "COc1ccc(-c2cnc3ccc(NCc4ccc(S(N)(=O)=O)cc4)nn23)cn1", "note": "[MMV010545, COc1ccc(cn1)c2cnc3ccc(NCc4ccc(cc4)S(=O)(=O)N)nn23]", "values": [{"measurement": "viability at 10 µM", "result": 97, "unit": "%"}]}, {"smiles": "c1csc(-c2cnc3sc(NCC4CCOCC4)nn23)c1", "note": "[MMV010764, C(Nc1nn2c(cnc2s1)c3cccs3)C4CCOCC4]", "values": [{"measurement": "viability at 10 µM", "result": 94, "unit": "%"}]}, {"smiles": "Cc1cc(Nc2ccc(C(F)(F)F)cc2)n2ccnc2n1", "note": "[MMV011229, CC1=NC2=NC=CN2C(NC3=CC=C(C(F)(F)F)C=C3)=C1]", "values": [{"measurement": "viability at 10 µM", "result": 89, "unit": "%"}]}, {"smiles": "COc1ccc(CCN2CCC(NCc3cccc(N(C)C)c3)CC2)cc1", "note": "[MMV011511, COc1ccc(CCN2CCC(CC2)NCc3cccc(c3)N(C)C)cc1]", "values": [{"measurement": "viability at 10 µM", "result": 66, "unit": "%"}]}, {"smiles": "NCC(=O)N1CCn2c(nc(-c3ccccc3)c2Nc2ccc3c(c2)OCO3)C1", "note": "[MMV011691, NCC(=O)N1CCn2c(C1)nc(c2Nc3ccc4OCOc4c3)c5ccccc5]", "values": [{"measurement": "viability at 10 µM", "result": 120, "unit": "%"}]}, {"smiles": "FC(F)(F)c1cnc(Sc2nnc(-c3ccncc3)o2)c(Cl)c1", "note": "[MMV011765, FC(F)(F)c1cnc(Sc2oc(nn2)c3ccncc3)c(Cl)c1]", "values": [{"measurement": "viability at 10 µM", "result": 85, "unit": "%"}]}, {"smiles": "Cc1ccc(NC(=O)c2nc[nH]c2C(=O)Nc2nc3ccccc3[nH]2)c(C)c1", "note": "[MMV011903, Cc1ccc(NC(=O)c2nc[nH]c2C(=O)Nc3nc4ccccc4[nH]3)c(C)c1]", "values": [{"measurement": "viability at 10 µM", "result": 10, "unit": "%"}]}, {"smiles": "Cc1nc2ccccn2c1C(=O)NCc1ccc(Cl)cc1", "note": "[MMV012074, Cc1nc2ccccn2c1C(=O)NCc3ccc(Cl)cc3]", "values": [{"measurement": "viability at 10 µM", "result": 102, "unit": "%"}]}, {"smiles": "Cc1cc(Nc2ccncc2)n2nc(C)c(-c3ccccc3Cl)c2n1", "note": "[MMV016136, Cc1cc(Nc2ccncc2)n3nc(C)c(c4ccccc4Cl)c3n1]", "values": [{"measurement": "viability at 10 µM", "result": 113, "unit": "%"}]}, {"smiles": "Cc1ccc(-c2cc(C(=O)Nc3cccnc3)c3cc(Br)ccc3n2)cc1", "note": "[MMV016838, Cc1ccc(cc1)-c1cc(c2cc(ccc2n1)Br)C(=O)Nc1cccnc1]", "values": [{"measurement": "viability at 10 µM", "result": 87, "unit": "%"}]}, {"smiles": "Cc1cc(C)n2nc(C(=O)Nc3cc(C(F)(F)F)ccc3N3CCOCC3)nc2n1", "note": "[MMV019087, Cc1cc(C)n2nc(nc2n1)C(=O)Nc3cc(ccc3N4CCOCC4)C(F)(F)F]", "values": [{"measurement": "viability at 10 µM", "result": 74, "unit": "%"}]}, {"smiles": "COc1ccc(C2CC(c3cccs3)=NN2C(=O)c2ccco2)cc1OC", "note": "(centres unmarked) [MMV019234, COc1ccc(cc1OC)C2CC(=NN2C(=O)c3occc3)c4cccs4]", "values": [{"measurement": "viability at 10 µM", "result": 107, "unit": "%"}]}, {"smiles": "CCC(NC(=O)c1ccccc1NC(=O)c1ccc(C)cc1)C(=O)OC", "note": "(centres unmarked) [MMV019551, CCC(NC(=O)c1ccccc1NC(=O)c2ccc(C)cc2)C(=O)OC]", "values": [{"measurement": "viability at 10 µM", "result": 97, "unit": "%"}]}, {"smiles": "CCN(CC)S(=O)(=O)c1ccc(Cl)c(C(=O)Nc2ccc3nc(C)sc3c2)c1", "note": "[MMV019721, CCN(CC)S(=O)(=O)c1ccc(Cl)c(c1)C(=O)Nc2ccc3nc(C)sc3c2]", "values": [{"measurement": "viability at 10 µM", "result": 62, "unit": "%"}]}, {"smiles": "Cc1ccc(S(=O)(=O)N2CCN(C(=O)c3cc(-c4ccccc4)[nH]n3)CC2)cc1", "note": "[MMV019742, Cc1ccc(cc1)S(=O)(=O)N2CCN(CC2)C(=O)c3cc([nH]n3)c4ccccc4]", "values": [{"measurement": "viability at 10 µM", "result": 96, "unit": "%"}]}]}
